Key:
Test in all cases: relative viability (nuclei count vs DMSO), 5 days (fraction); higher = more cells survive
OSI-027 + Luminespib = compound: COc1cccc2cc(-c3nc([C@H]4CC[C@H](C(=O)O)CC4)n4ncnc(N)c34)[nH]c12 [OSI-027] + CCNC(=O)c1noc(-c2cc(C(C)C)c(O)cc2O)c1-c1ccc(CN2CCOCC2)cc1 [Luminespib] (partner 0.01 µM)
Method in brief: (§1)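 Lung cancer cell lines, seeded in 1536-well plates, were treated the following day by pin tool with a single drug or with five library-drug doses (not always all listed) in √10 steps on top of a fixed anchor-drug dose. Cells were fixed and nuclei stained in one step after 5 days, and nuclei were counted. Relative viability is the nuclei count for treated wells divided by that for vehicle wells, reported as medians of duplicate plates.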

OSI-027 + Linsitinib = compound: COc1cccc2cc(-c3nc([C@H]4CC[C@H](C(=O)O)CC4)n4ncnc(N)c34)[nH]c12 [OSI-027] + C[C@]1(O)C[C@@H](c2nc(-c3ccc4ccc(-c5ccccc5)nc4c3)c3c(N)nccn32)C1 [Linsitinib] (partner 1 µM)
Method in brief: as §1

OSI-027 = compound: COc1cccc2cc(-c3nc([C@H]4CC[C@H](C(=O)O)CC4)n4ncnc(N)c34)[nH]c12 [OSI-027]
Method in brief: (§2)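 For viability, nuclei in each treated well were divided by nuclei in vehicle wells and the median across plates was taken. Lung cancer cell lines in 1536-well plates were pinned with five library-drug doses (not always all listed) spaced by √10, cultured 5 days without medium change, and imaged at 4× after Hoechst staining, with plates passing only at control CV below 25% and at least one doubling.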

Vemurafenib = compound: CCCS(=O)(=O)Nc1ccc(F)c(C(=O)c2c[nH]c3ncc(-c4ccc(Cl)cc4)cc23)c1F [Vemurafenib]
Method in brief: as §2

Cell Line	relative viability (OSI-027 + Luminespib; first compound 0.01 µM)	relative viability (OSI-027 + Luminespib; first compound 0.03162 µM)	relative viability (OSI-027 + Luminespib; first compound 0.1 µM)	relative viability (OSI-027 + Luminespib; first compound 0.3162 µM)	relative viability (OSI-027 + Luminespib; first compound 1 µM)	relative viability (OSI-027 + Linsitinib; first compound 0.01 µM)	relative viability (OSI-027 + Linsitinib; first compound 0.03162 µM)	relative viability (OSI-027 + Linsitinib; first compound 0.1 µM)	relative viability (OSI-027 + Linsitinib; first compound 0.3162 µM)	relative viability (OSI-027 + Linsitinib; first compound 1 µM)	relative viability (OSI-027; 0.01 µM)	relative viability (OSI-027; 0.03162 µM)	relative viability (OSI-027; 0.1 µM)	relative viability (OSI-027; 0.3162 µM)	relative viability (OSI-027; 0.5 µM, anchor plate)	relative viability (OSI-027; 1 µM)	relative viability (Vemurafenib; 0.03162 µM)	relative viability (Vemurafenib; 0.1 µM)	relative viability (Vemurafenib; 0.3162 µM)	relative viability (Vemurafenib; 1 µM)
201T	1.09	1.06	1	0.948	0.485	0.932	0.974	1.01	0.833	0.936	0.98	0.999	0.972	0.968	0.757	0.733	0.954	0.951	0.971	0.968
A549						0.582	0.479	0.372	0.263	0.0989	0.95	0.839	0.94	0.788		0.34	0.939	0.942	0.945	0.963
A-427	0.92	0.891	0.811	0.61	0.505	1.15	1.08	1.05	0.746	0.882	0.891	0.946	0.794	0.722	0.47	0.619	0.953	0.973	0.852	0.989
ABC-1		0.321	0.405	0.377	0.386	0.768	0.749	0.58	0.32	0.316	0.874	1.03	0.825	0.585	0.499	0.547	0.808	0.886	0.711	0.945
BEN	0.327	0.467	0.307	0.187	0.221	0.923	0.613	0.627	0.384	0.271	0.882	0.82	0.647	0.475	0.296	0.299	0.923	0.987	0.569	0.8
CAL-12T	0.342	0.533	0.589	0.0997	0.117	0.704	0.753	0.724	0.445	0.353	0.99	0.988	0.944	0.857	0.702	0.528	0.961	0.892	1.01	0.935
COR-L23	0.851	0.671	0.772	0.499	0.289	1.02	0.837	0.792	0.549	0.181	1.11	0.94	1.04	0.943	0.769	0.537	0.943	0.979	0.927	1.09
COR-L 105	0.58	0.707	0.862	0.526	0.472	1.07	0.737	0.966	0.749	0.431	0.907	0.945	0.814	0.835	0.775	0.762	0.772		0.908	1.03
Calu-6						0.959	0.87	0.864	0.673	0.504	1.12	0.954	1.03	0.907		0.731	0.932	0.956	0.849	0.974
ChaGo-K-1	0.574	0.648	0.586	0.355	0.31						0.989	0.91	0.959	0.9	0.63	0.859	0.958	1.02	0.863	1.01
EBC-1						0.901	0.886	0.916	0.78	0.419	0.943	0.837	0.909	0.886		0.361	0.943	0.929	0.986	1.03
EKVX	0.743	0.8	0.872	0.727	0.604	0.986	0.894	0.779	0.652	0.292	0.984	0.914	0.93	0.889	0.693	0.582	0.935		1.03	0.988
EMC-BAC-2	1.24	1.17	0.95	0.864	0.379	0.824	0.762	0.763	0.607	0.305	0.938	1.02	0.824	0.644	0.39	0.474	0.893	0.977	0.624	0.826
EPLC-272H	0.38	0.267	0.147	0.2	0.228	1.08	1.05	1.12	0.866	0.961	0.972	0.934	0.78	0.514	0.289	0.439	0.889	0.854	1.01	0.903
H3255	0.74	0.871	0.775	0.817	0.459	0.943	1	0.929	0.825	0.452	0.98	1.11	0.893	0.874	0.629	0.638	0.918		1.01	0.917
HARA	0.683	0.839	0.706	0.449	0.22	0.894	0.803	0.908	0.831	0.201	1.02	1.01	0.791	0.936	0.498	0.55	0.892	0.652	0.701	0.864
HCC-15	0.347	0.501	0.397	0.264	0.339	0.881	0.857	0.795	0.662	0.463	0.981	0.977	0.983	0.899	0.692	0.708	0.926	1.03	0.854	0.989
HCC-44	1.33	0.89	0.903	0.759	0.512	0.646	0.628	0.584	0.452	0.195	0.975	0.963	0.928	0.871	0.634	0.739	0.899	0.955	0.758	1.07

Cell Line	relative viability (OSI-027 + Luminespib; first compound 0.01 µM)	relative viability (OSI-027 + Luminespib; first compound 0.03162 µM)	relative viability (OSI-027 + Luminespib; first compound 0.1 µM)	relative viability (OSI-027 + Luminespib; first compound 0.3162 µM)	relative viability (OSI-027 + Luminespib; first compound 1 µM)	relative viability (OSI-027 + Linsitinib; first compound 0.01 µM)	relative viability (OSI-027 + Linsitinib; first compound 0.03162 µM)	relative viability (OSI-027 + Linsitinib; first compound 0.1 µM)	relative viability (OSI-027 + Linsitinib; first compound 0.3162 µM)	relative viability (OSI-027 + Linsitinib; first compound 1 µM)	relative viability (OSI-027; 0.01 µM)	relative viability (OSI-027; 0.03162 µM)	relative viability (OSI-027; 0.1 µM)	relative viability (OSI-027; 0.3162 µM)	relative viability (OSI-027; 0.5 µM, anchor plate)	relative viability (OSI-027; 1 µM)	relative viability (Vemurafenib; 0.03162 µM)	relative viability (Vemurafenib; 0.1 µM)	relative viability (Vemurafenib; 0.3162 µM)	relative viability (Vemurafenib; 1 µM)
HCC-78						0.469	0.386	0.296	0.255	0.232	0.938	0.866	0.832	0.727	0.385	0.501	0.93	0.838	1.05	0.964
HCC-366						0.632	0.713	0.64	0.445	0.0575	1.05	0.962	1.08	1.05	0.911	0.803	1.01	0.969		1.09
HCC-827	0.775	0.75	0.51	0.337	0.171	0.979	1.03	0.935	0.943	0.552	1.08	1.02	1.04	1.04	0.792	0.956	1.05		0.95	1.07
HOP-62	0.954	0.904	0.957	0.926	0.363	0.952	1.2	1.04	0.712	0.359	1	1.07	1	0.957	0.831	0.75	0.961	1.05	0.858	0.875
IA-LM						0.31	0.383	0.41	0.263	0.131	0.888	0.779	0.671	0.293		0.151	0.837	0.888	0.86	0.851
LC-2-ad	1.05	1.1	0.862	0.874	0.659	0.847	0.751	0.803	0.694	0.291	1.07	1.01	0.946	1.02	0.875	0.779	0.923	0.892	0.738	0.956
LCLC-97TM1	0.846	0.688	0.776	0.378	0.211	0.19	0.182	0.139	0.117	0.123	0.87	0.869	0.888	0.594	0.536	0.375	0.989	1.05	1.02	0.912
LCLC-103H	1.03	0.994	0.908	0.85	0.504	0.994	0.968	1.07	0.906	1.05	1.03	1.02	0.903	0.871	0.473	0.749	0.958	0.952	0.91	0.883
LK-2	0.172	0.193	0.159	0.173	0.137	0.523	0.184	0.396	0.289	0.138	1.02	0.914	0.703	0.515	0.221	0.191	0.944	0.937	1.05	0.66
NCI-H522	1.2	1.25	1.19	0.698	0.58						1	1.03	0.819	0.767	0.745	0.77	0.913	0.959	0.852	0.867
NCI-H1299						0.969	0.94	0.889	0.773	0.635	1	0.995	1.02	1.06		0.825	1.01	0.98	0.895	0.991
NCI-H1623	0.511	0.423	0.322	0.323	0.202						1.1	0.912	1.02	0.77	0.433	0.427	0.977		1.23	0.99
NCI-H1648											0.868	0.602	0.683	0.724	0.266	0.532	0.819	0.717	1.4	0.833
NCI-H1650	0.208	0.234	0.208	0.214	0.219						0.937	0.843	0.912	0.893	0.689	0.421	0.774	0.701	0.924	1.01
NCI-H1703						0.381	0.788	0.767	0.48	0.56	0.913	0.948	0.759	0.657		0.434	1.02	0.864	0.795	0.986
NCI-H2170	0.844	0.639	0.565	0.544	0.176						0.941	0.881	0.959	0.797	0.716	0.654	0.92	0.674	0.936	0.964
NCI-H2342	0.783	0.616	0.82	0.617	0.514						0.975	0.949	0.966	0.843	0.622	0.649	0.938	0.94	0.86	0.992
SW 900		0.153	0.169	0.171	0.163						0.618	0.925	0.744	0.812	0.627	0.47	0.69	0.843	0.808	0.756
